In patent US20240376432A1, “METHOD FOR PREPARING PLURIPOTENT STEM CELL-DERIVED HEMATOPOIETIC STEM CELL AND METHOD FOR CONSTRUCTING HUMANIZED MOUSE MODEL BY USING HEMATOPOIETIC STEM CELL THUS PREPARED” (SUNGKWANG MEDICAL FOUNDATION, priority 2021, published 2024):

System: human pluripotent stem cells (hPSCs)
Test: Differentiation of human pluripotent stem cells into hematopoietic stem cells, proportion of CD34+CD45+ cells by FACS
Type: cell-based
Procedure: Specific experiments on the method of preparing human hematopoietic stem cells were performed as follows. First, isolated human pluripotent stem cells (hPSCs) were maintained in stemMACS-IPS brew medium for 2 days. The differentiation base culture medium consisted of the following composition: Stempro 34-SFM (+stempro sup)+200 ug/ml of human Transferrin +2 mM of L-glutamine+0.5 mM of L-ascorbic acid+0.45 mM of MTG (1-thioglycerol) +1% of penicillin/streptomycin. To induce mesodermfrom the isolated hPSCs, treatment was performed with CHIR99021 (5 uM) alone, a representative example of a GSK inhibitor, for about 2 days. Next, treatment was performed with 50 ng/ml of BMP4, 50 ng/ml of VEGF, and 100 ng/ml of bFGF for 2 days to induce hemangioblasts. Next, 50 ng/ml of VEGF, 50 ng/ml of bFGF, and SB-431542 (10 μM) as representative examples of TGF-beta inhibitors and 1 μM of retinoic acid (RA) were added and cultured for about 1 day, and 0.1% (w/v) of PVA, 50 ng/ml of stem cell factor (SCF), and 10 ng/ml of bFGF were added and cultured for about 11 days (FIG. 2).
Specifically, it is widely known that vascular endothelial growth factor (VEGF) may be used to induce mesoderm and induce and maintain hemangioblasts (precursors of HSCs), and has been mainly used during the period of inducing hematopoietic stem cells. Therefore, to determine what effect it will have on the final hematopoietic stem cell generation efficiency when VEGF is excluded from the induction of hematopoietic stem cells, the results of hematopoietic stem cell differentiation according to the presence or absence of VEGF (10 ng/ml) were confirmed under the same conditions (50 ng/ml of SCF, 10 ng/ml of bFGF, 20 ng/ml of IL-3 and 10 ng/ml of IL-6) (FIG. 3A).
To confirm the differentiation results, Fluorescence Activated Cell Sorting (FACS) was performed to confirm the proportion of CD34^+CD45^+ cells. […] After washing away the remaining antibodies with staining buffer, 200 μl of staining buffer was added again and analyzed using a flow cytometer.
Specifically, in the existing method, treatment was performed with bone morphogenetic protein 4 (BMP4), VEGF, and CHIR99021 to induce mesoderm. However, it was determined that the above conditions were not compatible with the sequence of the process for differentiating stem cells into hematopoietic stem cells. […]
For this purpose, the efficiency of hematopoietic stem cell differentiation when treated with SB-431542 (SB4), a representative example of a TGF-beta inhibitor, in addition to VEGF and basic fibroblast growth factor (bFGF) for various periods of time, was determined (FIG. 5A). […]

Cc1cnc(-c2cnc(NCCNc3ccc(C#N)cn3)nc2-c2ccc(Cl)cc2Cl)[nH]1 [CHIR99021, 6-[[2-[[4-(2,4-Dichlorophenyl)-5-(5-methyl-1H-imidazol-2-yl)-2-pyrimidinyl]amino]ethyl]amino]-3-pyridinecarbonitrile]
ratio of CD34+CD45+ cells (CHIR99021 alone in mesoderm induction, compared with BMP4 (5 ng/ml), VEGF (50 ng/ml) and CHIR99021, FIG. 4B): significantly superior

NC(=O)c1ccc(-c2nc(-c3ccc4c(c3)OCO4)c(-c3ccccn3)[nH]2)cc1 [SB4]
hematopoietic stem cell differentiation efficiency (EHT induction, SB4 for a long period of time in addition to VEGF and bFGF, FIG. 5B): significantly reduced
proportion of CD34+CD45+ cells (EHT induction, SB4 for less than 24 hours in addition to VEGF and bFGF, FIG. 5B): significantly superior

VEGF
ratio of CD34+CD45+ cells (VEGF (10 ng/ml) present or absent during hematopoietic stem cell induction, with 50 ng/ml SCF, 10 ng/ml bFGF, 20 ng/ml IL-3, 10 ng/ml IL-6, FIG. 3B): excluding VEGF from the induction of hematopoietic stem cells was significantly superior
